Legend:
Assay type in all cases: cell-based
BHK-21 cells = assay: Anti-fibrosis activity test: inhibition of BHK-21 cell proliferation (CCK-8); conditions: Mesocricetus auratus, BHK-21, 48 h
How it was run: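 Each concentration was tested in triplicate on adhered BHK-21 cells for 48 h, with pirfenidone as reference. A 2 h CCK-8 incubation preceded absorbance reading at 450 nm, and IC50 was obtained from percent inhibition versus blank.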

[1] = system: human lung fibroblasts HFL1; assay: Anti-fibrosis activity test: inhibition of proliferation of human lung fibroblasts HFL1 (CCK-8); conditions: Homo sapiens, HFL1, 48 h
How it was run: (§1)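 Cells were seeded at 2×10^4 cells/mL and allowed to adhere for 24 h at 37° C, 5% CO2, then exposed to graded compound concentrations in triplicate for 48 h. CCK-8 was added for 2 h, A450 was read, and IC50 was derived from inhibition rate = (1−Ai/Ao)×100%.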

[2] = system: human hepatic stellate cells LX-2; assay: Anti-fibrosis activity test: inhibition of proliferation of human hepatic stellate cells LX-2 (CCK-8); conditions: Homo sapiens, 48 h
How it was run: as §1

[3] = system: human fibrosarcoma cells HT-1080; assay: Anti-fibrosis activity test: inhibition of proliferation of human fibrosarcoma cells HT-1080 (CCK-8); conditions: Homo sapiens, HT-1080, 48 h
How it was run: as §1

[4] = system: human dermal fibroblasts CCC-ESF-1; assay: Anti-fibrosis activity test: inhibition of proliferation of human dermal fibroblasts CCC-ESF-1 (CCK-8); conditions: Fibroblast
How it was run: as §1

[5] = system: human embryonic lung fibroblast IMR-90; assay: Anti-fibrosis activity test: inhibition of proliferation of human embryonic lung fibroblast IMR-90 (CCK-8)
How it was run: as §1

[6] = system: cardiac fibroblast RAT-iCell-C002; assay: Anti-fibrosis activity test: inhibition of proliferation of cardiac fibroblast RAT-iCell-C002 (CCK-8); conditions: Cardiac fibroblast, 48 h
How it was run: as §1

NF-κB = assay: Immunological activity test: inhibition of NF-κB activity; conditions: initial concentration of 30 μM; a/b isomers given as first/second symbol; read-out: IC50 (μM), inhibitory activity against NF-κB
How it was run: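 Single-point testing at 30 μM preceded IC50 determination.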

[7] = system: mouse macrophages (RAW264.7); assay: Lipopolysaccharide-induced NO secretion in macrophages (Griess); conditions: Mus musculus, RAW264.7, 24 h, RAW264.7, LPS 1 μg/ml, a/b isomers given as first/second symbol, read-out: IC50 (μM), inhibition of lipopolysaccharide-induced NO secretion in macrophages
How it was run: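 RAW264.7 cells in DMEM with 10% FBS were treated with test compounds at several concentrations, then stimulated with LPS (1 μg/ml) for 24 hours. Nitrite in the supernatant was measured by Griess reaction at 548 nm, and percent inhibition was calculated against blank-medium controls.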

[8] = CCK-8, 48 hours after administration
[9] = human lung fibroblasts HFL1, CCK-8, 48 hours
[10] = human hepatic stellate cells LX-2, CCK-8, 48 hours
[11] = human fibrosarcoma cells HT-1080, CCK-8, 48 hours
[12] = human dermal fibroblasts CCC-ESF-1, CCK-8, 48 hours
[13] = human embryonic lung fibroblast IMR-90, CCK-8, 48 hours
[14] = cardiac fibroblast RAT-iCell-C002, CCK-8, 48 hours
[15] = Homo sapiens, CCC-ESF-1 cells, 48 h, CCK-8
[16] = Homo sapiens, IMR-90 cells, 48 h, CCK-8

| Structure (SMILES) | IC50 (BHK-21 cells; [8]) [mM] | IC50 [1, 9] [mM] | IC50 [2, 10] [mM] | IC50 [3, 11] [mM] | IC50 [4, 12] [mM] | IC50 [5, 13] [mM] | IC50 [6, 14] [mM] | IC50 (NF-κB) [µM] | IC50 [7] [µM] | IC50 (BHK-21 cells; 48 h, CCK-8) [mM] | IC50 ([1]; HFL1 cells, 48 h, CCK-8) [mM] | IC50 ([2]; LX-2, 48 h, LX-2 cells, CCK-8) [mM] | IC50 ([3]; HT-1080 cells, 48 h, CCK-8) [mM] | IC50 [4, 15] [mM] | IC50 [5, 16] [mM] | IC50 ([6]; RAT-iCell-C002 cells, CCK-8) [mM] |
| --- | --- | --- | --- | --- | --- | --- | --- | --- | --- | --- | --- | --- | --- | --- | --- | --- |
| N#Cc1ccc2c(O)c3c(nc2c1)-c1cccn1C3=O [Compound 512b, 9-hydroxy-10-oxo-10H-pyrrolizino[1,2-b]quinoline-6-carbonitrile] | 0.05 to 5 | 0.05 to 5 | < 0.05 | 0.05 to 5 | 0.05 to 5 | 0.05 to 5 | 0.05 to 5 | 10 to 50 | 1 to 10 | – | – | – | – | – | – | – |
| CC(C)=CCOc1c2c(nc3ccc(F)cc13)-c1cccn1C2=O [Compound 112b, 7-fluoro-9-((3-methylbut-2-en-1-yl)oxy)-10H-pyrrolizino[1,2-b]quinolin-10-one] | 0.05 to 5 | 0.05 to 5 | 0.05 to 5 | 0.05 to 5 | 0.05 to 5 | 0.05 to 5 | 0.05 to 5 | 1 to 10 | 1 to 10 | – | – | – | – | – | – | – |
| N#Cc1ccccc1-c1ccc(Cn2c3c(c(=O)c4ccccc42)C(=O)n2cccc2-3)cc1 [Compound 648a, 4′-((9,10-Dioxo-9H-pyrrolizino[1,2-b]quinolin-4(10H)-yl)methyl)-[1,1′-biphenyl]-2-carbonitrile] | 0.05 to 5 | 0.05 to 5 | 0.05 to 5 | 0.05 to 5 | 0.05 to 5 | 0.05 to 5 | 0.05 to 5 | 1 to 10 | 10 to 50 | – | – | – | – | – | – | – |
| O=C1c2c(n(Cc3cccc(C(F)(F)F)c3)c3ccccc3c2=O)-c2cccn21 [Compound 598a, 4-(3-(Trifluoromethyl)benzyl)-9H-pyrrolizino[1,2-b]quinoline-9,10(4H)-dione] | 0.05 to 5 | 0.05 to 5 | 0.05 to 5 | 0.05 to 5 | 0.05 to 5 | 0.05 to 5 | 0.05 to 5 | 1 to 10 | 1 to 10 | – | – | – | – | – | – | – |
| Cc1ccc(COc2c3c(nc4ccccc24)-c2cccn2C3=O)cc1 [Compound 604b, 9-((4-methylbenzyl)oxy)-10H-pyrrolizino[1,2-b]quinolin-10-one] | 0.05 to 5 | 0.05 to 5 | 0.05 to 5 | 0.05 to 5 | 0.05 to 5 | 0.05 to 5 | 0.05 to 5 | 1 to 10 | 1 to 10 | – | – | – | – | – | – | – |
| O=C1c2c([nH]c3cccc(Cl)c3c2=O)-c2cccn21 [Compound 464a, 8-Chloro-9H-pyrrolizino[1,2-b]quinoline-9,10(4H)-dione] | < 0.05 | < 0.05 | 0.05 to 5 | 0.05 to 5 | 0.05 to 5 | 0.05 to 5 | 0.05 to 5 | 1 to 10 | 1 to 10 | – | – | – | – | – | – | – |
| N#Cc1ccccc1-c1ccc(COc2c3c(nc4ccccc24)-c2cccn2C3=O)cc1 [Compound 648b, 4′-(((10-oxo-10H-pyrrolizino[1,2-b]quinolin-9-yl)oxy)methyl)-[1,1′-biphenyl]-2-carbonitrile] | 0.05 to 5 | 0.05 to 5 | 0.05 to 5 | 0.05 to 5 | 0.05 to 5 | 0.05 to 5 | 0.05 to 5 | 1 to 10 | 10 to 50 | – | – | – | – | – | – | – |
| O=C1c2c(nc3ccccc3c2OCCN2CCOCC2)-c2cccn21 [Compound 662b, 9-(2-morpholinoethoxy)-10H-pyrrolizino[1,2-b]quinolin-10-one] | 0.05 to 5 | 0.05 to 5 | 0.05 to 5 | 0.05 to 5 | 0.05 to 5 | 0.05 to 5 | 0.05 to 5 | 1 to 10 | 1 to 10 | – | – | – | – | – | – | – |
| Cc1ccc(Cn2c3c(c(=O)c4ccccc42)C(=O)n2cccc2-3)cc1 [Compound 604a, 4-(4-Methylbenzyl)-9H-pyrrolizino[1,2-b]quinoline-9,10(4H)-dione] | 0.05 to 5 | 0.05 to 5 | 0.05 to 5 | < 0.05 | 0.05 to 5 | 0.05 to 5 | 0.05 to 5 | 1 to 10 | 1 to 10 | – | – | – | – | – | – | – |
| Cc1cccc2c(O)c3c(nc12)-c1cccn1C3=O [Compound 732b, 9-hydroxy-5-methyl-10H-pyrrolizino[1,2-b]quinolin-10-one] | – | – | – | – | – | – | – | 1 to 10 | 1 to 10 | 0.05 to 5 | 0.05 to 5 | 0.05 to 5 | 0.05 to 5 | 0.05 to 5 | 0.05 to 5 | 0.05 to 5 |
| O=C1c2c(nc3ccccc3c2OCc2ccc(-c3ccccc3)cc2)-c2cccn21 [Compound 649b, 9-([1,1′-biphenyl]-4-ylmethoxy)-10H-pyrrolizino[1,2-b]quinolin-10-one] | 0.05 to 5 | 0.05 to 5 | 0.05 to 5 | 0.05 to 5 | 0.05 to 5 | 0.05 to 5 | 0.05 to 5 | 10 to 50 | 10 to 50 | – | – | – | – | – | – | – |
| O=C1c2c(n(Cc3cc(F)cc(F)c3)c3ccccc3c2=O)-c2cccn21 [Compound 579a, 4-(3,5-Difluorobenzyl)-9H-pyrrolizino[1,2-b]quinoline-9,10(4H)-dione] | 0.05 to 5 | 0.05 to 5 | 0.05 to 5 | 0.05 to 5 | 0.05 to 5 | 0.05 to 5 | 0.05 to 5 | 0.1 to 1 | 1 to 10 | – | – | – | – | – | – | – |
| COCCn1c2c(c(=O)c3ccccc31)C(=O)n1cccc1-2 [Compound 652a, 4-(2-Methoxyethyl)-9H-pyrrolizino[1,2-b]quinoline-9,10(4H)-dione] | 0.05 to 5 | 0.05 to 5 | 0.05 to 5 | 0.05 to 5 | 0.05 to 5 | 0.05 to 5 | 0.05 to 5 | 1 to 10 | 1 to 10 | – | – | – | – | – | – | – |
| O=C1c2c(nc3ccccc3c2OCc2ccc(F)c(F)c2F)-c2cccn21 [Compound 584b, 9-((2,3,4-trifluorobenzyl)oxy)-10H-pyrrolizino[1,2-b]quinolin-10-one] | 0.05 to 5 | 0.05 to 5 | 0.05 to 5 | < 0.05 | 0.05 to 5 | 5 to 20 | 0.05 to 5 | 0.1 to 1 | 1 to 10 | – | – | – | – | – | – | – |
| CS(=O)(=O)n1c2c(c(=O)c3ccccc31)C(=O)n1cccc1-2 [Compound 650a, 4-(Methylsulfonyl)-9H-pyrrolizino[1,2-b]quinoline-9,10(4H)-dione] | < 0.05 | 0.05 to 5 | 0.05 to 5 | 0.05 to 5 | 0.05 to 5 | 0.05 to 5 | 0.05 to 5 | 1 to 10 | 1 to 10 | – | – | – | – | – | – | – |
| O=C1c2c([nH]c3c(C(F)(F)F)cccc3c2=O)-c2cccn21 [Compound 448a, 5-(Trifluoromethyl)-9H-pyrrolizino[1,2-b]quinoline-9,10(4H)-dione] | 0.05 to 5 | 0.05 to 5 | 0.05 to 5 | 0.05 to 5 | 0.05 to 5 | 0.05 to 5 | 0.05 to 5 | 1 to 10 | 0.1 to 1 | – | – | – | – | – | – | – |
| Cc1ccc2nc3c(c(O)c2c1)C(=O)n1cccc1-3 [Compound 696b, 9-hydroxy-7-methyl-10H-pyrrolizino[1,2-b]quinolin-10-one] | – | – | – | – | – | – | – | 1 to 10 | 1 to 10 | 0.05 to 5 | 0.05 to 5 | 0.05 to 5 | 0.05 to 5 | 0.05 to 5 | 0.05 to 5 | 0.05 to 5 |
| O=C1c2c(nc3ccccc3c2OCc2cc(F)c(F)cc2F)-c2cccn21 [Compound 585b, 9-((2,4,5-trifluorobenzyl)oxy)-10H-pyrrolizino[1,2-b]quinolin-10-one] | 0.05 to 5 | 0.05 to 5 | 0.05 to 5 | 0.05 to 5 | 0.05 to 5 | 0.05 to 5 | 0.05 to 5 | 1 to 10 | 1 to 10 | – | – | – | – | – | – | – |
| O=C1c2c(nc3ccccc3c2OCc2ccccc2)-c2cccn21 [Compound 103b, 9-(benzyloxy)-10H-pyrrolizino[1,2-b]quinolin-10-one] | 0.05 to 5 | 0.05 to 5 | 0.05 to 5 | 0.05 to 5 | 0.05 to 5 | < 0.05 | 0.05 to 5 | 1 to 10 | 1 to 10 | – | – | – | – | – | – | – |

— patent publication US11040028B2, “Penicinotam derivative, preparation method and use thereof” (OCEAN UNIVERSITY OF CHINA, priority 2017, dated 2021)
